Test systems include MDA-MB-231 breast; MDA-MB-435; SK-MEL-2 melanoma; TK-10 renal; SNB-75 CNS; SW-620 colon; COLO 205 colon; EKVX NSCLC; DU-145 prostate; UACC-257 melanoma; HCT-15 colon; A549 NSCLC; MOLT-4 leukemia; HS 578T breast; MDA-N; OVCAR-4 ovarian.
What all share (assay): inhibition of tumour cell growth, NCI panel, 48 h

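Five compound concentrations were applied to cells in 96-well plates for 48 hours; endpoints were derived by simple linear interpolation of the resulting dose-response curve. TGI: total growth inhibition.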

This note sets out measurements from PubChem BioAssay (NCI).

Consider `CSCCCNC(=O)c1csc(-c2csc(CCNC(=O)CNC(=O)OC(C)(C)C)n2)n1`, for which the TGI in the assay with MDA-MB-231 breast, in the assay on MDA-MB-435, with SK-MEL-2 melanoma, in the assay on TK-10 renal, with SNB-75 CNS and in the assay on SW-620 colon was greater than 100 µM each time. Further, the TGI with COLO 205 colon, in the assay on EKVX NSCLC, in the assay on DU-145 prostate, in the assay on UACC-257 melanoma, with HCT-15 colon and with A549 NSCLC was greater than 100 µM in each case. Besides, the TGI in the assay with MOLT-4 leukemia, with HS 578T breast, with MDA-N and in the assay on OVCAR-4 ovarian was greater than 100 µM each time.
With `NC(N)=NS(=O)(=O)c1ccc(NCc2cccc3c(=O)c4ccc(Cl)cc4oc23)cc1`, the TGI is greater than 15.6 µM in the assay with MDA-MB-231 breast; greater than 25 µM in the assay on MDA-MB-435; greater than 16.7 µM in the assay on SK-MEL-2 melanoma; greater than 14.5 µM in the assay with TK-10 renal; 8.64 µM with SNB-75 CNS; greater than 16.8 µM with SW-620 colon. Further, the TGI with COLO 205 colon was greater than 20.3 µM; in the assay with EKVX NSCLC, greater than 21.9 µM; in the assay on DU-145 prostate, 17.3 µM; in the assay with UACC-257 melanoma, greater than 25 µM; in the assay with HCT-15 colon, greater than 20 µM; with A549 NSCLC, greater than 25 µM. Moreover, the TGI with MOLT-4 leukemia was greater than 20.1 µM; with HS 578T breast, 13.9 µM; in the assay on MDA-N, greater than 19.1 µM; with OVCAR-4 ovarian, greater than 18 µM.
In the case of `CC(C)(C(=O)N(C(=O)N1CCN(c2ccccc2)CC1)S(=O)(=O)c1ccccc1)c1ccc(Cl)cc1`, the TGI is greater than 100 µM in the assay with MDA-MB-231 breast; greater than 100 µM in the assay on MDA-MB-435; 53.9 µM in the assay on SK-MEL-2 melanoma; greater than 100 µM in the assay on TK-10 renal; greater than 100 µM with SNB-75 CNS; greater than 100 µM in the assay on SW-620 colon. For the same molecule, the TGI with COLO 205 colon is 42.7 µM; in the assay on EKVX NSCLC it was 63.1 µM; in the assay with DU-145 prostate it was greater than 100 µM; with UACC-257 melanoma, greater than 100 µM; in the assay on HCT-15 colon, greater than 100 µM; in the assay with A549 NSCLC, greater than 100 µM. In addition, the TGI in the assay with MOLT-4 leukemia is 17.6 µM; with HS 578T breast, greater than 100 µM; in the assay on MDA-N, greater than 100 µM; in the assay with OVCAR-4 ovarian, greater than 100 µM.
